The structures appear in SMILES notation. Where only a bound is given, the exact number is not on record here.

For the first assay, the target named is T1, mGluR2 receptor (metabotropic glutamate receptor 2) (Homo sapiens, UniProt Q14416).
T1 construct: expressed in transfected cells
T1 sequence (Q14416 19-872, species assumed): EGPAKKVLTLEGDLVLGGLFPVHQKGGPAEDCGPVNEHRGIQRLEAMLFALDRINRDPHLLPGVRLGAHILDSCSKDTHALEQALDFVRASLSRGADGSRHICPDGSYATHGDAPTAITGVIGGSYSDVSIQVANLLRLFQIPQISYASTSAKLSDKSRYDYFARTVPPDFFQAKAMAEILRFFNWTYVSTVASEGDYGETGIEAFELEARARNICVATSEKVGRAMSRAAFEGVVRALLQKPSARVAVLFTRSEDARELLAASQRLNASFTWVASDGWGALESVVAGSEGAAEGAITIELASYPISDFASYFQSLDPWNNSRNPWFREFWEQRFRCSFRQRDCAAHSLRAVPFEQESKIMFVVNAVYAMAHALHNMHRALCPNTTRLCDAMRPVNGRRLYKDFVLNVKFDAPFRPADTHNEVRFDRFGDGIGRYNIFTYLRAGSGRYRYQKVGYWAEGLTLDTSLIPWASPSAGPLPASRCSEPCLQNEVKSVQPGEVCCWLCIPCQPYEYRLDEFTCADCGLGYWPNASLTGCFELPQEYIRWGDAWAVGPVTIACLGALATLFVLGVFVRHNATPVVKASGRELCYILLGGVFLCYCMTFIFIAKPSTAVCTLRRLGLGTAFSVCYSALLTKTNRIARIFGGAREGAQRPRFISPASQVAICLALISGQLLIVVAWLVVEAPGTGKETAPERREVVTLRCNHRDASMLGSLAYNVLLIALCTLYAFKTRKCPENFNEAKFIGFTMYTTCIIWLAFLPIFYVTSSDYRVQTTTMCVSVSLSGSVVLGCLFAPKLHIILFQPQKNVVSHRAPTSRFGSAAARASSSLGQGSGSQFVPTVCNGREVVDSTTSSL
Briefly: mGluR2 Potentiator Screen, FLIPR, EC10-EC20 glutamate challenge. The format is cell-based. The note with it: EC50 (uM). The method in brief:
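HEK cells stably co-expressing mGluR2 and Gα15, kept glutamine-free overnight, were loaded with Fluo-4 plus probenecid and GPT/pyruvate. Compounds (top 10 μM) were added ≥30 min before an EC10–EC20 glutamate challenge. Peak FLIPR fluorescence ratios were curve-fitted, excluding points above maximal effect, with maxima from on-plate standards.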
As to `Cn1c(CN2CCC(C#N)(c3ccccc3)CC2)nc2ccccc21` [compound 77], the EC50 was > 4.71 µM.

Still in this assay, the particulars now being: mGluR2 potentiator screen, Table 7; read-out: EC50.
As to `CCCCOc1ccc(Cl)cc1C1CCN(Cc2nc3ccccc3n2CF)CC1` [compound 182], the EC50 turned out to be 0.355 µM.
As for `COC(=O)[C@H]1CN(Cc2nc3ccccc3n2C)C[C@@H]1c1ccc(Cl)cc1` [compound 156], the EC50 amounted to 8.55 µM.
Regarding `COCCn1c(CN2CCC(c3cc(Cl)ccc3OCC3CC3C)CC2)nc2ccccc21` (centres unmarked) [compound 201], the EC50 was found to be 0.623 µM.
Same read-out and setting: in the case of `Cn1c(CN2CCC(c3cc(Cl)ccc3OCC3CCCCO3)CC2)nc2ccccc21` (centres unmarked) [compound 216] it was 0.534 µM.
Regarding `COCCn1c(CN2CCC(c3cc(Cl)ccc3OCCC3CC3)CC2)nc2ccccc21` [compound 191], the EC50 was 0.136 µM.
For `COCCn1c(CN2CCC(c3cc(Cl)ccc3OCC3CCOC3)CC2)nc2ccccc21` (centres unmarked) [compound 205], the EC50 was determined as 3.35 µM.
For the molecule `CCCCOc1ccc(Cl)cc1C1CCN(Cc2nc3ccccc3n2C2CC2)CC1` [compound 183], the EC50 turned out to be 1.52 µM.
Still for that read-out and setting: the result for `CC[C@H](C)COc1ccc(Cl)cc1C1CCN(Cc2nc3ccccc3n2CF)CC1` [compound 175] reads 8.76 µM; that for `CC[C@H](C)COc1ccc(Cl)cc1C1CCN(Cc2nc3ccccc3n2CCF)CC1` [compound 173], 1.7 µM; that for `COCCn1c(CN2CCC(c3cc(Cl)ccc3OCC3CCCO3)CC2)nc2ccccc21` (centres unmarked) [compound 209], 1.7 µM.
Still for that read-out and setting: the result for `FCCn1c(CN2CCC(c3cc(Cl)ccc3OCC3CCCCO3)CC2)nc2ccccc21` (centres unmarked) [compound 217] reads 1.18 µM; that for `Cn1c(CN2CCC(Cc3ccccc3)C2)nc2ccccc21` (centres unmarked) [compound 158], 0.865 µM; that for `COc1ccc(OC)c(C2CCN(Cc3nc4c(Br)cccc4n3C)CC2)c1` [compound 165], 2.66 µM.

The same assay, now with this note: read-out: EC50.
Take `CCCCC(=O)N1CC2(CCN(Cc3nc4ccccc4n3C)CC2)c2ccccc21` [compound 62]: the EC50 was found to be 0.261 µM.
Turning to `FCCn1c(CN2CCC(c3ccccc3C(F)(F)F)CC2)nc2ccccc21` [compound 243], the EC50 is 1.26 µM.
`COc1ccc(Cl)cc1C1CCN(Cc2nc3ccccc3n2C)CC1` [compound 231]: the concentration giving a half-maximal response (EC50) was 0.115 µM.
For the molecule `COc1ccccc1[C@H]1CCN(Cc2nc3ccccc3n2C)C[C@H]1C` (relative stereo) [compound 337], the EC50 was found to be 0.323 µM.
Same read-out and setting: the result for `CN1CCC[C@H]1COc1ccccc1C1CCN(Cc2nc3ccccc3n2C)CC1` [compound 98] reads > 4.81 µM.
On to `Cc1ccc2c(c1)C1(CCN(Cc3nc4ccccc4n3C)CC1)CN2C` [compound 146], for which the EC50 came to 1.67 µM.
The same measure, in the same setting: in the case of `Cn1c(CN2CCC(O)(c3ccc(Cl)c(C(F)(F)F)c3)CC2)nc2ccccc21` [compound 71] it was 4.35 µM.
As for `Cn1c(CN2CCC(c3ccccc3F)CC2)nc2cc(F)ccc21` [compound 352], the EC50 is 0.0885 µM.
`Cn1c(CN2CCC(c3cccc(C#N)c3)CC2)nc2ccccc21` [compound 418]: the EC50 amounted to 1.61 µM.
In the case of `COc1ccccc1C1CCN(Cc2nc3c(Cl)cccc3n2C)CC1` [compound 270], the EC50 is 0.838 µM.
`CCCN(CC1CC1)C(=O)c1cccc(C2CCN(Cc3nc4ccccc4n3C)CC2)c1` [compound 436]: the EC50 amounted to 2.21 µM.
For `CC(C)CN1CC2(CCN(Cc3nc4ccccc4n3C)CC2)c2cc(Cl)ccc21` [compound 113], the EC50 amounted to 4.37 µM.
For the molecule `CC1CN(Cc2nc3ccccc3n2C)CCC1c1ccc(OC(F)(F)F)cc1F` (centres unmarked) [compound 474], the EC50 amounted to 0.0767 µM.
Consider `Cc1ccc2c(c1)C1(CCN(Cc3nc4ccccc4n3C)CC1)CN2CC(C)C` [compound 119], for which the EC50 was found to be 2.9 µM.
Take `COc1ccccc1C1(OC)CCN(Cc2nc3ccccc3n2C)CC1C` (centres unmarked) [compound 332]: the EC50 is 5.22 µM.
With `COc1cc(C(F)(F)F)ccc1C1CCN(Cc2nc3ccccc3n2C2CC2)CC1` [compound 359], the EC50 came to 0.94 µM.
The same measure, in the same setting: the result for `Cn1c(CN2CCC(c3cc(C(F)(F)F)ccc3F)CC2)nc2cc(F)ccc21` [compound 375] reads 0.348 µM; that for `C[C@@H]1CN(Cc2nc3ccccc3n2C)CC[C@@H]1c1ccccc1F` (relative stereo) [compound 405], 0.124 µM; that for `C[C@@H]1CN(Cc2nc3ccccc3n2C)CC[C@@H]1c1ccc(C(F)(F)F)c(F)c1` (relative stereo) [compound 465], 0.375 µM.
Consider `Cn1c(CN2CCC(c3ccc(C(F)(F)F)cc3F)CC2)nc2cc(C#N)ccc21` [compound 391], for which the EC50 was 0.0444 µM.
As to `COc1ccc(Cl)cc1C1CCN(Cc2nc3ccccc3n2CF)CC1` [compound 232], the EC50 is 0.396 µM.
The same measure, in the same setting: the result for `COCCn1c(CN2CCC(c3ccccc3OC)CC2)nc2ccccc21` [compound 248] reads 0.32 µM; that for `Cn1c(CN2CCC3(CC2)CN(C(=O)c2cccs2)c2ccccc23)nc2ccccc21` [compound 59], 3.11 µM; that for `Cc1noc(C)c1C(=O)N1CC2(CCN(Cc3nc4ccccc4n3C)CC2)c2cc(Cl)ccc21` [compound 39], 2.83 µM.
The same measure, in the same setting: the result for `COc1cc(F)ccc1[C@H]1CCN(Cc2nc3ccccc3n2C)C[C@H]1C` (relative stereo) [compound 464] reads 0.125 µM.
In the case of `CN1CC2(CCN(Cc3nc4ccccc4n3C)CC2)c2cc(Cl)ccc21` [compound 131], the EC50 came to 1.76 µM.
Same read-out and setting: in the case of `COc1cc(C(F)(F)F)ccc1C1CCN(Cc2nc3c(Br)cccc3n2C)CC1` [compound 356] it was 3.9 µM.
On to `CCOCCOc1ccccc1C1CCN(Cc2nc3ccccc3n2C)CC1` [compound 89], for which the EC50 turned out to be 1.75 µM.
With `Cn1c(CN2CCC(c3cc(F)cc(F)c3)CC2)nc2c(F)cccc21` [compound 395], the EC50 amounted to 0.328 µM.
In the case of `Cc1ccc2c(c1)C1(CCN(Cc3nc4ccccc4n3C)CC1)CN2C(=O)C1CC1` [compound 36], the EC50 came to 2.33 µM.
For `CCCN1CC2(CCN(Cc3nc4ccccc4n3C)CC2)c2cc(C)cc(C)c21` [compound 145], the EC50 was 2.69 µM.
Turning to `Cn1c(CN2CCC(c3ccc(C(F)(F)F)cc3)CC2)nc2cc(Cl)ccc21` [compound 345], the EC50 was found to be 1.6 µM.
Take `Cn1c(CN2CCC(c3ccc(C(F)(F)F)cc3)C(C)(C)C2)nc2ccccc21` (centres unmarked) [compound 411]: the EC50 is 0.633 µM.
For `Cn1c(CN2CCC(c3cc(Cl)ccc3F)CC2)nc2cc(C#N)ccc21` [compound 387], the EC50 came out at 0.201 µM.
As for `CCCC(=O)N1CC2(CCN(Cc3nc4ccccc4n3C)CC2)c2cc(C)ccc21` [compound 38], the EC50 was determined as 0.388 µM.
With `C#CCOc1ccc(Cl)cc1C1CCN(Cc2nc3ccccc3n2CCOC)CC1` [compound 239], the EC50 turned out to be 0.079 µM.
Turning to `Cn1c(CN2CCC(c3ccc(F)cc3F)CC2)nc2cc(C#N)ccc21` [compound 427], the half-maximal effective concentration (EC50) came out at 0.14 µM.
In the case of `CC(C)Oc1ccccc1C1CCN(Cc2nc3ccccc3n2C)CC1` [compound 78], the EC50 amounted to 0.475 µM.
The same measure, in the same setting: the result for `Cn1c(CN2CCC(c3ccccc3O)CC2)nc2ccccc21` [compound 265] reads 1.44 µM.
For `Cn1c(CN2CCC(c3cccc(Cl)c3)CC2)nc2ccccc21` [compound 417], the EC50 worked out at 0.18 µM.
Still for that read-out and setting: the result for `OCCn1c(CN2CCC(c3ccccc3F)CC2)nc2ccccc21` [compound 295] reads 1.74 µM; that for `COCn1c(CN2CCC(c3cc(C(F)(F)F)ccc3F)CC2)nc2ccccc21` [compound 330], 0.969 µM.
As for `COc1cc(C(F)(F)F)ccc1C1CCN(Cc2nc3cccc(F)c3n2C)CC1` [compound 406], the EC50 came to 0.117 µM.
The same measure, in the same setting: in the case of `CCC(=O)N1CC2(CCN(Cc3nc4ccccc4n3C)CC2)c2cc(F)ccc21` [compound 20] it was 3.39 µM.
On to `COc1cc(C2CCN(Cc3nc4ccccc4n3C)CC2)ccc1F` [compound 425], for which the EC50 came out at 0.434 µM.
Same read-out and setting: the result for `COc1cccc2c1CCCC21CCN(Cc2nc3ccccc3n2C)CC1` [compound 69] reads > 6.97 µM.
Turning to `Cn1c(CN2CCC(c3ccc(F)cc3)CC2)nc2cc(C#N)ccc21` [compound 331], the EC50 turned out to be 0.299 µM.
Consider `FCn1c(CN2CCC(c3ccccc3F)CC2)nc2ccccc21` [compound 252], for which the EC50 is 0.225 µM.
Still for that read-out and setting: the result for `COCCn1c(CN2CCC(c3ccc(C(F)(F)F)cc3)CC2)nc2ccccc21` [compound 246] reads 0.418 µM; that for `Cn1c(CN2CCC(c3cc(F)cc(F)c3)CC2)nc2cc(F)ccc21` [compound 376], 0.299 µM.
On to `Cn1c(CN2CCC(c3ccccc3F)CC2)nc2cc(C(C)(C)O)ccc21` [Entry 298, 2-(2-((4-(2-fluorophenyl)piperidin-1-yl)methyl)-1-methyl-1H-benzo[d]imidazol-5-yl)propan-2-ol], for which the EC50 is > 7.34 µM.
In the case of `Cc1ccc2c(c1)nc(CN1CCC(c3ccccc3F)CC1)n2C` [compound 273], the EC50 was 0.0797 µM.
As for `Cc1noc(C)c1C(=O)N1CC2(CCN(Cc3nc4ccccc4n3C)CC2)c2ccccc21` [compound 54], the EC50 is > 5.56 µM.
As for `FCn1c(CN2CCC(c3ccccc3C(F)(F)F)CC2)nc2ccccc21` [compound 256], the EC50 was 0.422 µM.
Take `Cn1c(CN2CCC(c3ccccc3F)CC2)nc2c(F)cccc21` [Entry 325, 4-Fluoro-2-((4-(2-Fluorophenyl)piperidin-1-yl)methyl)-1-methyl-1H-benzo[d]imidazole]: the EC50 turned out to be 0.0338 µM.
As for `COc1ccc(-c2cccc3nc(CN4CCC(c5ccccc5F)CC4)n(C)c23)cn1` [compound 309], the concentration giving a half-maximal response (EC50) was 0.112 µM.
In the case of `COc1ccccc1C1CCN(Cc2nc3cc(F)ccc3n2C)CC1` [compound 284], the EC50 is 0.0394 µM.
Same read-out and setting: the result for `Cn1c(CN2CC[C@H]3c4ccccc4OC[C@H]3C2)nc2ccccc21` [compound 471] reads 2.07 µM.
Same read-out and setting: in the case of `COc1cc(C(F)(F)F)ccc1[C@H]1CCN(Cc2nc3ccccc3n2C)C[C@H]1C` (relative stereo) [compound 459] it was 0.128 µM.
On to `Cn1c(CN2CCC3(CC2)CN(Cc2cccnc2)c2ccc(Cl)cc23)nc2ccccc21` [compound 108], for which the half-maximal effective concentration (EC50) is > 8.73 µM.
